Data: ChEMBL document CHEMBL2331407, “Mexican antidiabetic herbs: valuable sources of inhibitors of α-glucosidases” (J Nat Prod, 2013)
Converted amounts (≈) assume the structure as drawn.

Columns and labels:
[1] = system: alpha-glucosidase (Rattus norvegicus); test: Inhibition of rat intestinal alpha-glucosidase; design: concentration or dose not given beside the values; conditions: concentration not given here
Alpha-glucosidase MAL12 [2] = target: T1, Alpha-glucosidase MAL12 (Saccharomyces cerevisiae S288c, UniProt P53341); test: (§1) Inhibition of baker's yeast alpha-glucosidase
[3] = target: Oligo-1,6-glucosidase IMA1 (Saccharomyces cerevisiae S288c) (UniProt P53051); test: as §1
[4] = target: alpha-glucosidase (Mus musculus); test: Inhibition of alpha-glucosidase from mouse intestine crude homogenate
Rattus norvegicus = species on record: Rattus norvegicus; test: Gastroprotective activity in rat assessed as protection against ethanol-induced gastric injury; type: functional, Stomach; conditions: for ED50: Rattus norvegicus, Stomach
[5] = Inhibition of rat intestinal alpha-glucosidase
Alpha-glucosidase MAL12 [6] = target: T1, Alpha-glucosidase MAL12; test: Mixed type inhibition of baker's yeast alpha-glucosidase by Dixon plot analysis

T1 sequence (P53341 whole entry): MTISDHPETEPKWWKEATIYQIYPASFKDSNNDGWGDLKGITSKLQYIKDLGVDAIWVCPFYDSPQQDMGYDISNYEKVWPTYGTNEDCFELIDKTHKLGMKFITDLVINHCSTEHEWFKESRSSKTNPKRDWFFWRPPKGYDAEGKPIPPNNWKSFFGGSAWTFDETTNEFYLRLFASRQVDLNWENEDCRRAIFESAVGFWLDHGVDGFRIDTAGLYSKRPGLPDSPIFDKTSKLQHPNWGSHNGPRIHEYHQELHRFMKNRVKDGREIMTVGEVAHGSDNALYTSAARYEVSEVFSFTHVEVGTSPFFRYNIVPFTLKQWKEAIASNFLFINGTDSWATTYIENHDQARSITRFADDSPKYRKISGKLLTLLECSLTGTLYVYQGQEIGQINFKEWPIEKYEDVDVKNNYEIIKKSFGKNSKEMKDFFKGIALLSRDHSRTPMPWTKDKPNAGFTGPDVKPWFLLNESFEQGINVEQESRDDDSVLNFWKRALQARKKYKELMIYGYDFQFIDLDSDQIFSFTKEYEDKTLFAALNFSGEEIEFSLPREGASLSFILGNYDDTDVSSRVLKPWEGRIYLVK
Oligo-1,6-glucosidase IMA1 (Saccharomyces cerevisiae S288c), sequence (P53051 whole entry): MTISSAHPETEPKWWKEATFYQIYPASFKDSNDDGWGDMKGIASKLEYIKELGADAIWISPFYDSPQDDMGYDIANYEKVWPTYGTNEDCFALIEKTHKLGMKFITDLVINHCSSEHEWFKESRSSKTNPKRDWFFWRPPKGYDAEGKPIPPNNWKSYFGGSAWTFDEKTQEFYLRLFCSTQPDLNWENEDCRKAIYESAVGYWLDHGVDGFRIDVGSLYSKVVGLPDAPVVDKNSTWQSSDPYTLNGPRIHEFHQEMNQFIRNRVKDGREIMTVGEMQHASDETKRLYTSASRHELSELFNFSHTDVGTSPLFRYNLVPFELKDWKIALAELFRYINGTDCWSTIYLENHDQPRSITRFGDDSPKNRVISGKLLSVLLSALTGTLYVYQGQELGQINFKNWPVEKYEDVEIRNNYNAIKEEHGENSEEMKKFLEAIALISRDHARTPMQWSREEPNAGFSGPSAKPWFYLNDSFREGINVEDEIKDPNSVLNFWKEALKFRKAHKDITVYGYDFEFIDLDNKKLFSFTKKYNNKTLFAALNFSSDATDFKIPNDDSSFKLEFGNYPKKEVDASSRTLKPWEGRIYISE

Row | SMILES | inhibition [1] [%] | IC50 (Alpha-glucosidase MAL12 [2]) [µM] | also measured
1 | CC(C)=C[C@H](O[C@@H]1O[C@H](CO)[C@@H](O)[C@@H](O)[C@H]1O)[C@@H](O)[C@@H](C)[C@H]1CC[C@@]2(C)[C@@H]3C=C[C@@]45OC[C@]3(CC[C@]12C)[C@@H]4CC[C@H](O[C@@H]1O[C@H](CO)[C@@H](O)[C@H](O)[C@H]1O)C5(C)C | 18.6 | – | –
2 | C[C@H](C/C=C/C(C)(C)O)[C@H]1CC[C@@]2(C)[C@@H]3C=C[C@@]45OC[C@]3(CC[C@]12C)[C@@H]4CC[C@H](O[C@@H]1O[C@H](CO)[C@@H](O)[C@H](O)[C@H]1O)C5(C)C | 10.1 | – | –
3 | COc1cc(-c2oc3cc(O)cc(O)c3c(=O)c2O)ccc1O [ISORHAMNETIN] | – | 160 | –
4 | O=c1cc(-c2ccc(O)c(O)c2)c2c(O)cc(O)cc2o1 | – | 208 | inhibition [3]: Dose-dependent effect
5 | COc1cc(O)c2c(-c3ccc(O)c(O)c3)cc(=O)oc2c1 | – | 62 | inhibition [3]: Dose-dependent effect
6 | CC(C)=CC(=O)O[C@H]1C[C@@H](O)[C@@]2(C)CO[C@H]3[C@@H](O)[C@@]4(C)C5=CC[C@@H](c6ccoc6)[C@]5(C)CC[C@@H]4[C@]1(C)[C@@H]32 [MELIACINOLIN] | – | – | IC50 [4]: 32.18 µg/mL (≈ 63 µM)
7 | C[C@H](CC(O)C(O)C(C)(C)O)[C@H]1CC[C@@]2(C)[C@@H]3CC=C4[C@@H](CC[C@H](O[C@@H]5O[C@H](CO[C@@H]6O[C@H](CO)[C@@H](O)[C@H](O)[C@H]6O)[C@@H](O)[C@H](O)[C@H]5O)C4(C)C)[C@]3(C)CC[C@]12C (stereo partly specified) | 13 | – | –
8 | C[C@H](C/C=C/C(C)(C)O)[C@H]1CC[C@@]2(C)[C@@H]3C=C[C@@]45OC[C@]3(CC[C@]12C)[C@@H]4CC[C@H](O[C@@H]1O[C@H](CO)[C@@H](O)[C@@H](O)[C@H]1O)C5(C)C | 12.5 | – | –
9 | O=C(/C=C/c1ccc(O)c(O)c1)O[C@@H]1C[C@](O)(C(=O)O)C[C@@H](O)[C@H]1O [CHLOROGENIC ACID] | – | – | Activity (Rattus norvegicus): 74.04%; ED50 (Rattus norvegicus): 26 mg/kg
10 | C=C1C(=O)O[C@@H]2C[C@@H](C)/C=C\C(=O)[C@](C)(O)[C@H](OC(C)=O)[C@@H](OC(=O)/C(C)=C/C)[C@@H]12 [CALEIN C] | – | 280 | –
11 | COc1cc(/C=C/C(=O)OC[C@H]2O[C@@H](O[C@H]3[C@H](Oc4cc5c(O[C@@H]6O[C@H](CO)[C@@H](O)[C@H](O)[C@H]6O)cc(O)cc5[o+]c4-c4ccc(O)c(O)c4)O[C@H](COC(=O)/C=C/c4ccc(O)c(O)c4)[C@@H](O)[C@@H]3O)[C@H](O)[C@@H](O)[C@@H]2O)ccc1O | – | – | IC50 [5]: 193 µM
12 | C[C@H]([C@H](O)[C@@H](O)[C@@H](O)C(C)(C)O)[C@H]1CC[C@@]2(C)[C@@H]3CC=C4[C@@H](CC[C@H](O[C@@H]5O[C@H](CO[C@@H]6O[C@H](CO)[C@@H](O)[C@H](O)[C@H]6O)[C@@H](O)[C@H](O)[C@H]5O)C4(C)C)[C@]3(C)CC[C@]12C | 21.7 | – | –
13 | COc1cc(O[C@@H]2O[C@H](CO[C@@H]3OC[C@](O)(CO)[C@H]3O)[C@@H](O)[C@H](O)[C@H]2O)c2c(-c3ccc(O)c(O)c3)cc(=O)oc2c1 | – | – | Activity (Rattus norvegicus): 68.85%; ED50 (Rattus norvegicus): 15 mg/kg
14 | CO[C@@H]1O[C@]23C=C[C@@H]4[C@@]1(CC[C@]1(C)[C@@H]([C@H](C)C/C=C/C(C)(C)O)CC[C@@]41C)[C@@H]2CC[C@H](O[C@@H]1O[C@H](CO)[C@@H](O)[C@H](O)[C@H]1O)C3(C)C | 10.9 | – | –
15 | COc1cc(/C=C/C(=O)OC[C@H]2O[C@@H](O[C@H]3[C@H](Oc4cc5c(O[C@@H]6O[C@H](CO)[C@@H](O)[C@H](O)[C@H]6O)cc(O)cc5[o+]c4-c4ccc(O)c(OC)c4)O[C@H](COC(=O)/C=C/c4ccc(O)c(O)c4)[C@@H](O)[C@@H]3O)[C@H](O)[C@@H](O)[C@@H]2O)ccc1O | – | – | IC50 [5]: 200 µM
16 | COC(C)(C)/C=C/C[C@@H](C)[C@H]1CC[C@@]2(C)[C@@H]3C=C[C@@]45OC[C@]3(CC[C@]12C)[C@@H]4CC[C@H](O[C@@H]1O[C@H](CO)[C@@H](O)[C@H](O)[C@H]1O)C5(C)C | 11.5 | – | –
17 | CO[C@H]1C=C2[C@@H](CC[C@H](O[C@@H]3O[C@H](CO)[C@@H](O)[C@@H](O)[C@H]3O)C2(C)C)[C@]2(C)CC[C@]3(C)[C@@H]([C@H](C)C/C=C/C(C)(C)O)CC[C@@]3(C)[C@H]12 | 15.8 | – | –
18 | CC1(C)C=Cc2c(ccc(C(=O)CO)c2O)O1 | – | 420 | –
19 | CCCC=C1OC(=O)c2ccccc21 [(E)-BUTYLIDENEPHTHALIDE] | – | 2350 | inhibition [3]: Dose-dependent effect; Ki (Alpha-glucosidase MAL12 [6]): 4.86 µM
20 | COC(C)(C)/C=C/C[C@@H](C)[C@H]1CC[C@@]2(C)[C@@H]3CC[C@@]45OC(=O)[C@]3(CC[C@]12C)[C@@H]4CC[C@H](O[C@@H]1O[C@H](CO)[C@@H](O)[C@@H](O)[C@H]1O)C5(C)C | 13.6 | – | –
